Experimental findings from patent US20220153732A1, “PROTEIN SECRETION INHIBITORS” (KEZAR LIFE SCIENCES, priority 2019, published 2022) are described below.

Each structure is given as a SMILES string.

By EC50 is commonly meant the concentration at which the effect is half-maximal.

Common to all, as to type: cell-based
Experiment [1] relates to PD1-ss+10aa/Gaussia Luciferase. In words: Dox-Induced PD1-ss-Gluc Assay. Conditions: 24 hr doxycycline induction, 293FRT/TO cells, Gaussia luciferase signal; read-out: 24 hr Dox Inducible PD1ssGluc 293FRT/TO: Mean IC50. An outline of the steps: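 Compounds, diluted in DMSO/media with doxycycline, were added to cells plated a day earlier and kept at 37° C under 5% CO2. The cells stably express a Gaussia luciferase construct fused to PD1-ss+10aa, induced via the T-REx system. Unassigned stereochemistry means mixture data.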

Experiment [2] has as its system IL-2-FL/Gaussia Luciferase. Briefly: Dox Induced IL2-FL-Gluc Assay. Conditions: 24 hr doxycycline induction, 293FRT/TO cells, Gaussia luciferase signal; read-out: 24 hr Dox Inducible IL2FLGIuc 293FRT/TO: Mean IC50. An outline of the steps:
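Compounds were added together with doxycycline in DMSO/media and incubated at 37° C., 5% CO2. The cells were a stably selected line carrying IL-2-FL/Gaussia luciferase under T-REx inducible control. Structures drawn without stereochemistry were tested as stereoisomer mixtures.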

Experiment [3] concerns human multiple myeloma cell line NCI-H929. Briefly: H929 Cell Viability Assay. Conditions: 48 hr, NCI-H929 cells, Celltiter-Glo, read-out: 48 hr H929 Viability Celltiter-Glo: Mean EC50. On the procedure:
Plates were incubated at 37° C., 5% CO2 for 48 hours. After 48 hours, Celltiter-Glo® (Promega) was added to each well and luciferase signal was quantified using Tecan Infinite M1000 Pro for cell viability determination.
For chemical structures that include one or more stereoisomers, but are illustrated without indicating stereochemistry, the assay data refers to a mixture of stereoisomers.
A general note: ATP-based viability assays read luminescence as a measure of living cells.

In experiment [4] the test system is TNFα-FL/Gaussia Luciferase. In words: Dox Induced TNFα-FL-Gluc Assay. The following applies: 24 hr doxycycline induction, 293FRT/TO cells, Gaussia luciferase signal; read-out: 24 hr Dox Inducible TNFaFLGluc 293FRT/TO: Mean IC50. The method, boiled down: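 Compounds were added in doxycycline-containing DMSO/media to cells plated the previous day and incubated at 37° C under 5% CO2. These cells stably express a TNFα-FL/Gaussia luciferase cDNA whose expression is under T-REx (Dox-inducible) control, selected with Hygromycin and Blasticidin.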

Experiment [5] concerns HER3-ss+4aa/Gaussia Luciferase. In words: Dox-Induced Her3-ss-Gluc Assay. The following applies: 24 hr doxycycline induction, 293FRT/TO cells, Gaussia luciferase signal; read-out: 24 hr Dox Inducible Her3(ss + 4)Gluc 293FRT/TO: Mean IC50. The method, boiled down: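 Compounds, diluted in DMSO/media containing doxycycline, were incubated at 37° C., 5% CO2 with cells seeded one day earlier. The cells stably express HER3-ss+4aa/Gaussia luciferase under T-REx control. Where no stereochemistry is shown, data refer to the mixture of stereoisomers.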

For experiment [6], the system named is human multiple myeloma cell line U266B1. Briefly: U266 Cell Viability Assay. The following applies: U-266, 48 hr, U266B1 cells, Celltiter-Glo, read-out: 48 hr U266 Viability Celltiter-Glo: Mean EC50. An outline of the steps: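 Viability measured by CellTiter-Glo luciferase signal after 48 h compound exposure (37 °C, 5% CO2) of U266B1 cells in 384-well format. Where stereochemistry is not shown, data refer to the stereoisomer mixture.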

Take `CC(C)OC(C)(C)c1csc(NC(=O)c2cccn2CC2CNC(=O)C2)n1` (stereo not drawn) [Compound A93, N-(4-(2-isopropoxypropan-2-yl)thiazol-2-yl)-1-((5-oxopyrrolidin-3-yl)methyl)-1H-pyrrole-2-carboxamide]: the IC50 in experiment [1] is 13.2 µM; in experiment [2], over 25 µM; in experiment [4] it was over 25 µM; in experiment [5], over 25 µM. Also, the EC50 in experiment [3] and in experiment [6] was over 25 µM in each case.
For the compound `COCc1cnc(NC(=O)c2cccn2Cc2ccncc2)s1` [Compound A94], the IC50 in experiment [1] was 14.6 µM; in experiment [2], over 25 µM; in experiment [4], over 25 µM; in experiment [5], over 25 µM. In addition, the EC50 in experiment [3] and in experiment [6] was over 25 µM each time.
Turning to `O=C(Nc1nc2c(s1)COCC2)c1cccn1Cc1ccncc1` [Compound A95], the IC50 in experiment [1] was 14.7 µM; in experiment [2], over 25 µM; in experiment [4], over 25 µM; in experiment [5], over 25 µM. Also, the EC50 in experiment [3] and in experiment [6] was over 25 µM in each case.
With `CCS(=O)(=O)N1CCN(Cc2csc(NC(=O)c3cccn3Cc3ccncc3)n2)CC1` [Compound A96, N-(4-((4-(ethylsulfonyl)piperazin-1-yl)methyl)thiazol-2-yl)-1-(pyridin-4-ylmethyl)-1H-pyrrole-2-carboxamide], the IC50 in experiment [1] was 15.7 µM; in experiment [2], over 25 µM; in experiment [4], over 25 µM; in experiment [5], over 25 µM. Also, the EC50 in experiment [3] and in experiment [6] was over 25 µM each time.
With `Cc1cc(Cn2cccc2C(=O)Nc2nc(C(C)(C)OC(C)C)cs2)cc(C)n1` [Compound A97], the IC50 in experiment [1] was 18.9 µM; in experiment [2] it was over 25 µM; in experiment [4], over 25 µM; in experiment [5] it was over 25 µM. Moreover, the EC50 in experiment [3] and in experiment [6] was over 25 µM throughout.
As to `CCN(C(=O)c1cccn1Cc1ccncc1)c1nc(C)cs1` [Compound A98], the IC50 in experiment [1] is 19.6 µM; in experiment [2], over 25 µM; in experiment [4], over 25 µM; in experiment [5], over 25 µM. The EC50 in experiment [3] and in experiment [6] was over 25 µM each time.
`CC(=O)N(C)c1ccc(Cn2cccc2C(=O)Nc2nc(C(C)(C)OC(C)C)cs2)cc1` [Compound A99, N-(4-(2-isopropoxypropan-2-yl)thiazol-2-yl)-1-(4-(N-methylacetamido)benzyl)-1H-pyrrole-2-carboxamide]: the IC50 in experiment [1] is 19.9 µM; in experiment [2], over 25 µM; in experiment [4], over 25 µM; in experiment [5], over 25 µM. Besides, the EC50 in experiment [3] and in experiment [6] was over 25 µM throughout.
As to `CC(C)OC(C)(C)c1csc(NC(=O)c2ccn(Cc3ccncc3)n2)n1` [Compound A100, N-(4-(2-isopropoxypropan-2-yl)thiazol-2-yl)-1-(pyridin-4-ylmethyl)-1H-pyrazole-3-carboxamide], the IC50 in experiment [1] was 24.6 µM; in experiment [2], over 25 µM; in experiment [4] it was over 25 µM; in experiment [5], over 25 µM. For the same compound, the values for the EC50 in experiment [3] and in experiment [6] were 24.6 µM and over 25 µM, respectively.
Take `CC(=O)N1CCC(CCCn2cccc2C(=O)Nc2nc(C(C)(C)OC(C)C)cs2)CC1` [Compound A101, 1-(3-(1-acetylpiperidin-4-yl)propyl)-N-(4-(2-isopropoxypropan-2-yl)thiazol-2-yl)-1H-pyrrole-2-carboxamide]: the IC50 in experiment [1], in experiment [2], in experiment [4] and in experiment [5] was over 25 µM each time. The EC50 in experiment [3] and in experiment [6] was over 25 µM in each case.
Consider `CC(C)OC(C)(C)c1csc(NC(=O)C2CCCC(=O)N2Cc2ccncc2)n1` (stereo not drawn) [Compound A102, N-(4-(2-isopropoxypropan-2-yl)thiazol-2-yl)-6-oxo-1-(pyridin-4-ylmethyl)piperidine-2-carboxamide], for which the IC50 in experiment [1], in experiment [2], in experiment [4] and in experiment [5] was over 25 µM throughout. Also, the EC50 in experiment [3] and in experiment [6] was over 25 µM each time.
Turning to `Cc1cc(C(=O)Nc2nc(C(C)(C)OC(C)C)cs2)n(Cc2ccncc2)n1` [Compound A103], the IC50 in experiment [1], in experiment [2], in experiment [4] and in experiment [5] was over 25 µM throughout. Also, the EC50 in experiment [3] and in experiment [6] was over 25 µM throughout.
Take `CC(C)OC(C)(C)c1csc(NC(=O)c2cncn2Cc2ccncc2)n1` [Compound A104, N-(4-(2-isopropoxypropan-2-yl)thiazol-2-yl)-1-(pyridin-4-ylmethyl)-1H-imidazole-5-carboxamide]: the IC50 in experiment [1], in experiment [2], in experiment [4] and in experiment [5] was over 25 µM each time. The EC50 in experiment [3] and in experiment [6] was over 25 µM each time.
In the case of `CC(C)OC(C)(C)c1csc(NC(=O)c2ccc(C(N)=O)n2Cc2ccncc2)n1` [Compound A105, N-(4-(2-isopropoxypropan-2-yl)thiazol-2-yl)-1-(pyridin-4-ylmethyl)-1H-pyrrole-2,5-dicarboxamide], the IC50 in experiment [1], in experiment [2], in experiment [4] and in experiment [5] was over 25 µM each time. Also, the EC50 in experiment [3] and in experiment [6] was over 25 µM in each case.
Consider `CC(C)OC(C)(C)c1csc(NC(=O)c2cccc(=O)n2Cc2ccncc2)n1` [Compound A106, N-(4-(2-isopropoxypropan-2-yl)thiazol-2-yl)-6-oxo-1-(pyridin-4-ylmethyl)-1,6-dihydropyridine-2-carboxamide], for which the IC50 in experiment [1], in experiment [2], in experiment [4] and in experiment [5] was over 25 µM each time. Moreover, the 50% effective concentration (EC50) in experiment [3] and in experiment [6] was over 25 µM each time.
On to `CC(C)OC(C)(C)c1csc(NC(=O)c2ccc(C(=O)N(C)C)n2Cc2ccncc2)n1` [Compound A107, N2-(4-(2-isopropoxypropan-2-yl)thiazol-2-yl)-N5,N5-dimethyl-1-(pyridin-4-ylmethyl)-1H-pyrrole-2,5-dicarboxamide], for which the IC50 in experiment [1], in experiment [2], in experiment [4] and in experiment [5] was over 25 µM throughout. For the same compound, the EC50 in experiment [3] and in experiment [6] was over 25 µM in each case.
For the compound `CC(C)OC(C)(C)c1csc(NC(=O)c2nccn2Cc2ccncc2)n1` [Compound A108, N-(4-(2-isopropoxypropan-2-yl)thiazol-2-yl)-1-(pyridin-4-ylmethyl)-1H-imidazole-2-carboxamide], the IC50 in experiment [1] is over 25 µM; in experiment [2] it was 7.27 µM; in experiment [4] it was over 25 µM; in experiment [5] it was over 25 µM. In addition, the EC50 in experiment [3] and in experiment [6] was over 25 µM each time.
As for `CC(C)OC(C)(C)c1csc(NC(=O)c2cc(C(N)=O)cn2Cc2ccncc2)n1` [Compound A109, N2-(4-(2-isopropoxypropan-2-yl)thiazol-2-yl)-1-(pyridin-4-ylmethyl)-1H-pyrrole-2,4-dicarboxamide], the IC50 in experiment [1], in experiment [2], in experiment [4] and in experiment [5] was over 25 µM throughout. The concentration for a half-maximal effect (EC50) in experiment [3] is 19.5 µM; in experiment [6], over 25 µM.
With `CC(C)OC(C)(C)c1csc(NC(=O)c2ccc(CO)n2Cc2ccncc2)n1` [Compound A110, 5-(hydroxymethyl)-N-(4-(2-isopropoxypropan-2-yl)thiazol-2-yl)-1-(pyridin-4-ylmethyl)-1H-pyrrole-2-carboxamide], the IC50 in experiment [1], in experiment [2], in experiment [4] and in experiment [5] was over 25 µM in each case. For the same compound, the EC50 in experiment [3] and in experiment [6] was over 25 µM in each case.
